{"source": "patent US10897901B2", "about": "“Herbicidal composition” (FMC Corporation, priority 2007, dated 2021)", "format_in_all_cases": "in vivo", "key": {"[1]": {"tested_on": "Smooth Crabgrass (Digitaria ischaemum)", "test": "Example 2 post-emergent turf plot test, tillered crabgrass", "conditions": "0.57 lb ai/acre", "description": "(§1) The experimental design used randomized plots with post-emergent treatment and three replications per test trial. The size of each experimental plot was 4 feet by 6 feet. The application of each test composition was performed with pressurized back-pack sprayers, calibrated to spray 200 gallons per acre. Test compositions containing sulfentrazone (DISMISS™ Turf Herbicide), quinclorac, (FACET® 75 DF herbicide) or a mixture of sulfentrazone and quinclorac in a one to three ratio, prepared as described above, were diluted with water to provide the appropriate test rate concentrations.\n(§2) The control of weeds was evaluated in each experimental plot from 1 to 27 days after treatment (DAT) of each test rate. The results, shown as an average of the replications, were compared with results observed in untreated control plots in the same trials."}, "[2]": {"tested_on": "Field Violet (Viola arvensis)", "test": "Example 2 post-emergent turf plot test, violet", "conditions": "0.57 lb ai/acre", "description": "as §1, §2"}, "[3]": {"tested_on": "Blackseed Plantain (Plantago rugelii)", "test": "Example 2 post-emergent turf plot test, plantain", "conditions": "0.57 lb ai/acre", "description": "as §1, §2"}, "[4]": {"tested_on": "yellow nutsedge (Cyperus esculentusi)", "test": "Example 3 post-emergence greenhouse pot test, nutsedge", "description": "Test compositions containing sulfentrazone (DISMISS™ Turf Herbicide), quniclorac, (DRIVE® 75 DF Herbicide) or mixture of sulfentrazone and quinclorac in a three to one ratio, prepared as described above, were diluted with water to provide the appropriate test rate concentrations. A nonionic surfactant (0.25%) was added to each test solution.\nThe test weeds include Red River crabgrass (Digitaria ciliaris) and yellow nutsedge (Cyperus esculentusi).\nFor post-emergence testing, three disposable 3 inch square pots for each rate of application of each herbicide were filled with a soil, comprised of peat moss, vermiculite, bark ash, pine bark, limestone and a wetting agent, to which 8 to 10 seeds were planted. The pots were placed in a greenhouse and watered daily, thus allowing the seeds to germinate and the foliage to develop.\n(§3) Pots designated for treatment were placed on a conveyor belt and the conveyor belt fed under a spray nozzle mounted about ten inches above the foliage. The spray of herbicidal solution was commenced and once stabilized; the pots were passed under the spray at a speed to receive a coverage equivalent of 30 gallons per acre. The application rates are those shown in Table 3 below for the individual herbicidal solutions and the mixture of sulfentrazone and quinclorac. The post-emergence pots were immediately placed in the green-house and not watered until 24 hours after treatment with the test solution. Thereafter they were regularly watered at ground level. The control of weeds was evaluated in each experimental test from 1 to 22 days after treatment (DAT). The results, shown as an average of the replications, were compared with results observed in untreated control pots in the same tests.\n(§4) Percent control was determined by a method similar to the 0 to 100 rating system disclosed in “Research Methods in Weed Science,” 2nd ed., B. Truelove, Ed.; Southern Weed Science Society; Auburn University, Auburn, Ala., 1977."}, "[5]": {"tested_on": "Chickweed (Stellaria media)", "test": "Example 4 post-emergence greenhouse pot test, chickweed", "conditions": "0.25 lb ai/acre", "description": "(§5) Test compositions containing sulfentrazone (75 DF formulation), quniclorac, (DRIVE® 75 DF Herbicide) or mixtures of sulfentrazone and quinclorac at ratios of 1:1 to 1:5, were diluted with water to provide the appropriate test rate concentrations. A nonionic surfactant (0.25%) was added to each test solution. The test weeds include crabgrass (Digitaria sp), Chickweed (Stellaria media), Hemp Sesbania (Sesbania exaltata), Kochia (Kochia scoparia), Ivyleaf Morningglory (Ipomoea hederacea), Redroot Pigweed (Amaranthus retroflexus) and yellow nutsedge (Cyperus esculentusi).\n(§6) For post-emergence testing, three disposable 3 inch square pots for each rate of application of each herbicide were filled with a soil, comprised of peat moss, vermiculite, bark ash, pine bark, limestone and a wetting agent, to which 8 to 10 seeds were planted. The pots were placed in a greenhouse and watered daily, thus allowing the seeds to germinate and the foliage to develop for 22 days, 3 months for Kochia.\nas §3, with “Table 4” for “Table 3”, “from 2” for “from 1”, “to 20” for “to 22”\nas §4"}, "[6]": {"tested_on": "Ivyleaf Morningglory (Ipomoea hederacea)", "test": "Example 4 post-emergence greenhouse pot test, morningglory", "conditions": "0.25 lb ai/acre", "description": "as §5, §6\nas §3, with “Table 4” for “Table 3”, “from 2” for “from 1”, “to 20” for “to 22”\nas §4"}}}
{"molecule": "Cc1nn(-c2cc(NS(C)(=O)=O)c(Cl)cc2Cl)c(=O)n1C(F)F", "note": "[A, N-[2,4-dichloro-5-[4-(difluoromethyl)-4,5-dihydro-3-methyl-5-oxo-1H-1,2,4-triazol-1-yl]phenyl]methanesulfonamide]", "values": [{"measurement": "Percent Control", "setting": "[1]; 7 DAT", "value": 34, "unit": "%"}, {"measurement": "Percent Control", "setting": "[1]; 14 DAT", "value": 36, "unit": "%"}, {"measurement": "Percent Control", "setting": "[1]; 21 DAT", "value": 52, "unit": "%"}, {"measurement": "Percent Control", "setting": "[2]; 7 DAT", "value": 66, "unit": "%"}, {"measurement": "Percent Control", "setting": "[2]; 14 DAT", "value": 78, "unit": "%"}, {"measurement": "Percent Control", "setting": "[2]; 21 DAT", "value": 69, "unit": "%"}, {"measurement": "Percent Control", "setting": "[3]; 7 DAT", "value": 100, "unit": "%"}, {"measurement": "Percent Control", "setting": "[3]; 14 DAT", "value": 100, "unit": "%"}, {"measurement": "Percent Control", "setting": "[3]; 21 DAT", "value": 100, "unit": "%"}, {"measurement": "Percent Control", "setting": "[4]; 1-5 leaf stage, 7 days old, 0.125 lb ai/acre, 1 DAT", "value": 50, "unit": "%"}, {"measurement": "Percent Control", "setting": "[4]; 1-5 leaf stage, 7 days old, 0.125 lb ai/acre, 3 DAT", "value": 50, "unit": "%"}, {"measurement": "Percent Control", "setting": "[4]; 1-5 leaf stage, 7 days old, 0.125 lb ai/acre, 7 DAT", "value": 63, "unit": "%"}, {"measurement": "Percent Control", "setting": "[4]; 1-5 leaf stage, 7 days old, 0.125 lb ai/acre, 14 DAT", "value": 70, "unit": "%"}, {"measurement": "Percent Control", "setting": "[4]; 1-5 leaf stage, 7 days old, 0.125 lb ai/acre, 21 DAT", "value": 67, "unit": "%"}, {"measurement": "Percent Control", "setting": "[4]; 1-5 leaf stage, 7 days old, 0.25 lb ai/acre, 1 DAT", "value": 70, "unit": "%"}, {"measurement": "Percent Control", "setting": "[4]; 1-5 leaf stage, 7 days old, 0.25 lb ai/acre, 3 DAT", "value": 85, "unit": "%"}, {"measurement": "Percent Control", "setting": "[4]; 1-5 leaf stage, 7 days old, 0.25 lb ai/acre, 7 DAT", "value": 77, "unit": "%"}, {"measurement": "Percent Control", "setting": "[4]; 1-5 leaf stage, 7 days old, 0.25 lb ai/acre, 14 DAT", "value": 68, "unit": "%"}, {"measurement": "Percent Control", "setting": "[4]; 1-5 leaf stage, 7 days old, 0.25 lb ai/acre, 21 DAT", "value": 50, "unit": "%"}, {"measurement": "Percent Control", "setting": "[4]; 1-5 leaf stage, 7 days old, 0.375 lb ai/acre, 1 DAT", "value": 75, "unit": "%"}, {"measurement": "Percent Control", "setting": "[4]; 1-5 leaf stage, 7 days old, 0.375 lb ai/acre, 3 DAT", "value": 91, "unit": "%"}, {"measurement": "Percent Control", "setting": "[4]; 1-5 leaf stage, 7 days old, 0.375 lb ai/acre, 7 DAT", "value": 95, "unit": "%"}, {"measurement": "Percent Control", "setting": "[4]; 1-5 leaf stage, 7 days old, 0.375 lb ai/acre, 14 DAT", "value": 73, "unit": "%"}, {"measurement": "Percent Control", "setting": "[4]; 1-5 leaf stage, 7 days old, 0.375 lb ai/acre, 21 DAT", "value": 70, "unit": "%"}, {"measurement": "Percent Control", "setting": "[4]; 5-7 leaves, cut to 6 cm tall, 28 days old, 0.125 lb ai/acre, 1 DAT", "value": 0, "unit": "%"}, {"measurement": "Percent Control", "setting": "[4]; 5-7 leaves, cut to 6 cm tall, 28 days old, 0.125 lb ai/acre, 3 DAT", "value": 80, "unit": "%"}, {"measurement": "Percent Control", "setting": "[4]; 5-7 leaves, cut to 6 cm tall, 28 days old, 0.125 lb ai/acre, 7 DAT", "value": 85, "unit": "%"}, {"measurement": "Percent Control", "setting": "[4]; 5-7 leaves, cut to 6 cm tall, 28 days old, 0.125 lb ai/acre, 14 DAT", "value": 70, "unit": "%"}, {"measurement": "Percent Control", "setting": "[4]; 5-7 leaves, cut to 6 cm tall, 28 days old, 0.125 lb ai/acre, 21 DAT", "value": 60, "unit": "%"}, {"measurement": "Percent Control", "setting": "[4]; 5-7 leaves, cut to 6 cm tall, 28 days old, 0.25 lb ai/acre, 1 DAT", "value": 0, "unit": "%"}, {"measurement": "Percent Control", "setting": "[4]; 5-7 leaves, cut to 6 cm tall, 28 days old, 0.25 lb ai/acre, 3 DAT", "value": 75, "unit": "%"}, {"measurement": "Percent Control", "setting": "[4]; 5-7 leaves, cut to 6 cm tall, 28 days old, 0.25 lb ai/acre, 7 DAT", "value": 80, "unit": "%"}, {"measurement": "Percent Control", "setting": "[4]; 5-7 leaves, cut to 6 cm tall, 28 days old, 0.25 lb ai/acre, 14 DAT", "value": 80, "unit": "%"}, {"measurement": "Percent Control", "setting": "[4]; 5-7 leaves, cut to 6 cm tall, 28 days old, 0.25 lb ai/acre, 21 DAT", "value": 90, "unit": "%"}, {"measurement": "Percent Control", "setting": "[4]; 5-7 leaves, cut to 6 cm tall, 28 days old, 0.375 lb ai/acre, 1 DAT", "value": 0, "unit": "%"}, {"measurement": "Percent Control", "setting": "[4]; 5-7 leaves, cut to 6 cm tall, 28 days old, 0.375 lb ai/acre, 3 DAT", "value": 90, "unit": "%"}, {"measurement": "Percent Control", "setting": "[4]; 5-7 leaves, cut to 6 cm tall, 28 days old, 0.375 lb ai/acre, 7 DAT", "value": 90, "unit": "%"}, {"measurement": "Percent Control", "setting": "[4]; 5-7 leaves, cut to 6 cm tall, 28 days old, 0.375 lb ai/acre, 14 DAT", "value": 90, "unit": "%"}, {"measurement": "Percent Control", "setting": "[4]; 5-7 leaves, cut to 6 cm tall, 28 days old, 0.375 lb ai/acre, 21 DAT", "value": 90, "unit": "%"}, {"measurement": "Percent Control", "setting": "[5]; 2 DAT", "value": 30, "unit": "%"}, {"measurement": "Percent Control", "setting": "[5]; 7 DAT", "value": 30, "unit": "%"}, {"measurement": "Percent Control", "setting": "[5]; 14 DAT", "value": 10, "unit": "%"}, {"measurement": "Percent Control", "setting": "[5]; 20 DAT", "value": 0, "unit": "%"}, {"measurement": "Percent Control", "setting": "[6]; 2 DAT", "value": 60, "unit": "%"}, {"measurement": "Percent Control", "setting": "[6]; 7 DAT", "value": 80, "unit": "%"}, {"measurement": "Percent Control", "setting": "[6]; 14 DAT", "value": 90, "unit": "%"}, {"measurement": "Percent Control", "setting": "[6]; 20 DAT", "value": 99, "unit": "%"}]}
